Assay results as given in patent publication US20230172206A1 (BASF SE, priority 2020, published 2023).

Experiments:
[1] = tested on: Phakopsora pachyrhizi (F129L); assay: Protective control of soybean rust on soybeans (PHAKPA P2); format: in vivo; details: for % PHAKPA (F129L) Disease level P2 at 4 ppm: protective P2, 4 ppm; for % PHAKPA (F129L) Disease level P2 at 16 ppm: protective P2, 16 ppm
[2] = tested on: Phakopsora pachyrhizi (F129L); assay: Protective control of soybean rust on soybeans (PHAKPA P6); format: in vivo; details: for % PHAKPA (F129L) Disease level P6 at 4 ppm: protective P6, 4 ppm; for % PHAKPA (F129L) Disease level P6 at 16 ppm: protective P6, 16 ppm

Row | Compound | % PHAKPA (F129L) Disease level P2 at 4 ppm ([1]; soybean rust F129L isolate) | % PHAKPA (F129L) Disease level P2 at 16 ppm ([1]; soybean rust F129L isolate) | % PHAKPA (F129L) Disease level P6 at 4 ppm ([2]; soybean rust F129L isolate) | % PHAKPA (F129L) Disease level P6 at 16 ppm ([2]; soybean rust F129L isolate) | % PHAKPA (F129L) Disease level P2 at 4 ppm ([1]; F129L isolate) | % PHAKPA (F129L) Disease level P2 at 16 ppm ([1]; F129L isolate) | % PHAKPA (F129L) Disease level P6 at 4 ppm ([2]; F129L isolate) | % PHAKPA (F129L) Disease level P6 at 16 ppm ([2]; F129L isolate) | PHAKPA (F129L) Disease level (%) P2 at 16 ppm ([1]; protective, inoculation 2 days after spraying, 16 ppm, % diseased leaf area) | PHAKPA (F129L) Disease level (%) P6 at 16 ppm ([2]; protective, inoculation six days after spraying, 16 ppm, % diseased leaf area)
1 | CO/N=C(/C(=O)OC)c1cccc(C)c1CO/N=C(\C)c1ccc(F)cc1Cl [compound 256] | 50% | 18% | 70% | 20% |  |  |  |  |  | 
2 | CO/N=C(/C(=O)OC)c1cccc(C)c1CO/N=C(\C)c1ccc(-c2ccc(F)cc2)cc1C(F)(F)F [compound 425] |  |  |  |  | 27% | 28% | 53% | 40% |  | 
3 | CO/N=C(/C(=O)OC)c1cccc(C)c1CO/N=C(\C)c1c(F)cc(F)cc1C(F)(F)F [compound 360] | 53% | 9% | 80% | 5% |  |  |  |  |  | 
4 | CO/N=C(/C(=O)OC)c1cccc(C)c1CO/N=C(\C)c1cc(Br)cc(F)c1F [compound 240] | 70% | 8% | 73% | 3% |  |  |  |  |  | 
5 | CNC(=O)/C(=N/OC)c1cccc(C)c1CO/N=C(\C)c1c(F)ccc(F)c1OC(F)(F)F [compound 346] | 4% | 0% | 5% | 0% |  |  |  |  |  | 
6 | CNC(=O)/C(=N/OC)c1cccc(C)c1CO/N=C(\C)c1ccc(OC(F)(F)F)cc1OC(F)(F)F [compound 349] | 97% | 50% | 97% | 35% |  |  |  |  |  | 
7 | CNC(=O)/C(=N/OC)c1cccc(C)c1CO/N=C(\C)c1cccc(C(C)(F)F)c1 [compound 303] | 2% | 0% | 12% | 0% |  |  |  |  |  | 
8 | CO/N=C(/C(=O)OC)c1cccc(C)c1CO/N=C(\C)c1ccccc1C#N [compound 224] | 97% | 100% | 100% | 100% |  |  |  |  |  | 
9 | C#Cc1cc(F)ccc1/C(C)=N/OCc1c(C)cccc1/C(=N\OC)C(=O)NC [compound 286] | 67% | 15% | 97% | 27% |  |  |  |  |  | 
10 | CNC(=O)/C(=N/OC)c1cccc(C)c1CO/N=C(\C)c1ccccc1OC(F)F [compound 252] | 50% | 3% | 87% | 32% |  |  |  |  |  | 
11 | CNC(=O)/C(=N/OC)c1cccc(C)c1CO/N=C(\C)c1ccccc1OCOC [compound 314] | 100% | 40% |  |  |  |  |  |  |  | 
12 | C#Cc1cccc(/C(C)=N/OCc2c(C)cccc2/C(=N\OC)C(=O)NC)c1F [compound 401] |  |  |  |  | 17% | 5% | 32% | 4% |  | 
13 | CO/C=C(/C(=O)OC)c1cccc(C)c1CO/N=C(\C)c1ccc(C)cc1C(F)(F)F [compound 446] |  |  |  |  | 2% | 0% | 6% | 0% |  | 
14 | CO/N=C(/C(=O)OC)c1cccc(C)c1CO/N=C(\C)c1ccc(F)cc1F [compound 266] | 67% | 18% | 90% | 43% |  |  |  |  |  | 
15 | CO/C=C(/C(=O)OC)c1cccc(C)c1CO/N=C(\C)c1ccc(Cl)c(Cl)c1C(F)(F)F [compound 430] |  |  |  |  | 22% | 6% | 37% | 17% |  | 
16 | CNC(=O)/C(=N/OC)c1cccc(C)c1CO/N=C(\C)c1ccccc1CC(F)(F)F [compound 223] | 4% | 0% | 28% | 0% |  |  |  |  |  | 

Row | Compound | % PHAKPA (F129L) Disease level P2 at 4 ppm ([1]; soybean rust F129L isolate) | % PHAKPA (F129L) Disease level P2 at 16 ppm ([1]; soybean rust F129L isolate) | % PHAKPA (F129L) Disease level P6 at 4 ppm ([2]; soybean rust F129L isolate) | % PHAKPA (F129L) Disease level P6 at 16 ppm ([2]; soybean rust F129L isolate) | % PHAKPA (F129L) Disease level P2 at 4 ppm ([1]; F129L isolate) | % PHAKPA (F129L) Disease level P2 at 16 ppm ([1]; F129L isolate) | % PHAKPA (F129L) Disease level P6 at 4 ppm ([2]; F129L isolate) | % PHAKPA (F129L) Disease level P6 at 16 ppm ([2]; F129L isolate) | PHAKPA (F129L) Disease level (%) P2 at 16 ppm ([1]; protective, inoculation 2 days after spraying, 16 ppm, % diseased leaf area) | PHAKPA (F129L) Disease level (%) P6 at 16 ppm ([2]; protective, inoculation six days after spraying, 16 ppm, % diseased leaf area)
17 | CO/N=C(/C(=O)OC)c1cccc(C)c1CO/N=C(\C)c1ccccc1CC(F)(F)F [compound 222] | 100% | 57% | 100% | 93% |  |  |  |  |  | 
18 | CO/N=C(/C(=O)OC)c1cccc(C)c1CO/N=C(\C)c1c(F)cccc1C(F)(F)F [compound 365] | 77% | 15% | 97% | 43% |  |  |  |  |  | 
19 | CO/N=C(/C(=O)OC)c1cccc(C)c1CO/N=C(\C)c1ccc(Cc2ccccc2)cc1C(F)(F)F [compound 408] |  |  |  |  | 30% | 12% | 33% | 13% |  | 
20 | CNC(=O)/C(=N/OC)c1cccc(C)c1CO/N=C(\C)c1ccc(/C(C)=N\OC)cc1OC(F)(F)F [compound 415] |  |  |  |  | 47% | 5% | 67% | 11% |  | 
21 | CNC(=O)/C(=N/OC)c1cccc(C)c1CO/N=C(\C)c1c(F)cccc1C(F)(F)F [compound 345] | 22% | 1% | 32% | 1% |  |  |  |  |  | 
22 | CO/N=C(\C)COc1cccc(/C(C)=N/OCc2c(C)cccc2/C(=N\OC)C(=O)OC)c1 [compound 227] | 100% | 47% | 100% | 57% |  |  |  |  |  | 
23 | CNC(=O)/C(=N/OC)c1cccc(C)c1CO/N=C(\C)c1cc(F)ccc1F [compound 131] | 0% | 0% | 2% | 0% |  |  |  |  | 0% | 0%
24 | CNC(=O)/C(=N/OC)c1cccc(C)c1CO/N=C(\C)c1ccccc1C(C)C [compound 220] | 90% | 30% | 100% | 77% |  |  |  |  |  | 
25 | CO/N=C(/C(=O)OC)c1cccc(C)c1CO/N=C(\C)c1ccc(OC)cc1C(F)(F)F [compound 328] | 33% | 8% | 23% | 5% |  |  |  |  |  | 
26 | CO/C=C(/C(=O)OC)c1cccc(C)c1CO/N=C(\C)c1ccc(-c2ccc(F)cc2)cc1C(F)(F)F [compound 432] |  |  |  |  | 12% | 0% | 13% | 3% |  | 
27 | CNC(=O)/C(=N/OC)c1cccc(C)c1CO/N=C(\C)c1ccccc1OC(C)C [compound 315] | 100% | 60% |  |  |  |  |  |  |  | 
28 | CNC(=O)/C(=N/OC)c1cccc(C)c1CO/N=C(\C)c1cc(C(F)(F)F)ccc1C(F)(F)F [compound 272] | 60% | 8% |  |  |  |  |  |  |  | 
29 | CNC(=O)/C(=N/OC)c1cccc(C)c1CO/N=C(\C)c1cc(C(F)(F)F)ccc1C [compound 273] | 60% | 3% |  |  |  |  |  |  |  | 
30 | CNC(=O)/C(=N/OC)c1cccc(C)c1CO/N=C(\C)c1ccc(OC(F)(F)F)cc1Cl [compound 271] | 5% | 1% |  |  |  |  |  |  |  | 
31 | CNC(=O)/C(=N/OC)c1cccc(C)c1CO/N=C(\C)c1ccccc1Oc1ccccc1 [compound 321] | 100% | 40% |  |  |  |  |  |  |  | 
